Experimental data as given in PubChem BioAssay AID2060906 (Molecular Pharmacology Branch, DTP, NCI, 2025).
pIC50: −log10 of the molar value.

Test system: 485176-168-R4-J1-PDC complex spheroid growth
Assay: Anticancer human tumor 485176-168-R4-J1-PDC patient-derived pancreatic adenocarcinoma cell line growth inhibition [RAS]
Conditions: for pIC50: curve of first compound; for viability, T/C: stronger effect = lower value
Method in brief: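 Multi-cell-type spheroids: tumor cells plus HUVEC endothelial cells and mesenchymal stem cells. RAS-pathway inhibitors were combined with targeted agents, each dosed in half-log steps down from clinical Cmax, or from 10 microM when Cmax was unknown.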

[1] = second compound 0.000949 µM, first compound 0.000949 µM
[2] = second compound 0.000949 µM, first compound 0.003 µM
[3] = second compound 0.000949 µM, first compound 0.00949 µM
[4] = second compound 0.000949 µM, first compound 0.03 µM
[5] = second compound 0.000949 µM, first compound 0.0949 µM
[6] = second compound 0.000949 µM, first compound 0.3 µM
[7] = second compound 0.003 µM, first compound 0.000949 µM
[8] = second compound 0.003 µM, first compound 0.003 µM
[9] = second compound 0.003 µM, first compound 0.00949 µM
[10] = second compound 0.003 µM, first compound 0.03 µM
[11] = second compound 0.003 µM, first compound 0.0949 µM
[12] = second compound 0.003 µM, first compound 0.3 µM
[13] = second compound 0.00949 µM, first compound 0.000949 µM
[14] = second compound 0.00949 µM, first compound 0.003 µM
[15] = second compound 0.00949 µM, first compound 0.00949 µM
[16] = second compound 0.00949 µM, first compound 0.03 µM
[17] = second compound 0.00949 µM, first compound 0.0949 µM
[18] = second compound 0.00949 µM, first compound 0.3 µM
[19] = second compound 0.03 µM, first compound 0.000949 µM
[20] = second compound 0.03 µM, first compound 0.003 µM
[21] = second compound 0.03 µM, first compound 0.00949 µM
[22] = second compound 0.03 µM, first compound 0.03 µM
[23] = second compound 0.03 µM, first compound 0.0949 µM
[24] = second compound 0.03 µM, first compound 0.3 µM
[25] = second compound 0.0949 µM, first compound 0.000949 µM
[26] = second compound 0.0949 µM, first compound 0.003 µM
[27] = second compound 0.0949 µM, first compound 0.00949 µM
[28] = second compound 0.0949 µM, first compound 0.03 µM
[29] = second compound 0.0949 µM, first compound 0.0949 µM
[30] = second compound 0.0949 µM, first compound 0.3 µM
[31] = second compound 0.3 µM, first compound 0.000949 µM
[32] = second compound 0.3 µM, first compound 0.003 µM
[33] = second compound 0.3 µM, first compound 0.00949 µM
[34] = second compound 0.3 µM, first compound 0.03 µM
[35] = second compound 0.3 µM, first compound 0.0949 µM
[36] = second compound 0.3 µM, first compound 0.3 µM
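Note: spheroids exposed to compounds for seven days before readout.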
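Throughout, for viability, T/C: luminescence viability expressed relative to DMSO vehicle wells set as 100%.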

`C=CC(=O)N1CCN(c2nc(OCC3CCCN3C)nc3c(F)c(-c4nc(N)cc(C)c4C(F)(F)F)c(Cl)cc23)C(C)C1` (stereo unspecified) + CCn1c(-c2cccnc2C(C)OC)c2c3cc(ccc31)N1CCOC(CC(NC(=O)C(C(C)C)N(C)C(=O)C3(F)CCN(C(=O)C#CC(C)(C)N(C)C)CC3)C(=O)N3CCCC(N3)C(=O)OCC(C)(C)C2)C1 was tested, and the pIC50 (second compound 0.000949 µM) was < 6.00, the pIC50 (second compound 0.003 µM) was < 6.00 and the pIC50 (second compound 0.00949 µM) was < 6.00. For the same compound, the pIC50 (second compound 0.03 µM) was < 6.00, the pIC50 (second compound 0.0949 µM) was < 6.00 and the pIC50 (second compound 0.3 µM) was < 6.00. The viability, T/C (second compound 0.000949 µM, first compound 0.00316 µM) was 109%, the viability, T/C (second compound 0.000949 µM, first compound 0.01 µM) was 90.2% and the viability, T/C (second compound 0.000949 µM, first compound 0.0316 µM) was 108%. It also gave a viability, T/C (second compound 0.000949 µM, first compound 0.1 µM) of 88.8%, a viability, T/C (second compound 0.000949 µM, first compound 0.316 µM) of 113% and a viability, T/C (second compound 0.000949 µM, first compound 1 µM) of 89.4%. For the same compound, the viability, T/C (second compound 0.003 µM, first compound 0.00316 µM) was 94.2%, the viability, T/C (second compound 0.003 µM, first compound 0.01 µM) was 94.5% and the viability, T/C (second compound 0.003 µM, first compound 0.0316 µM) was 96.2%. The viability, T/C (second compound 0.003 µM, first compound 0.1 µM) was 93.4%, the viability, T/C (second compound 0.003 µM, first compound 0.316 µM) was 115% and the viability, T/C (second compound 0.003 µM, first compound 1 µM) was 105%. It also gave a viability, T/C (second compound 0.00949 µM, first compound 0.00316 µM) of 92.2%, a viability, T/C (second compound 0.00949 µM, first compound 0.01 µM) of 93.6% and a viability, T/C (second compound 0.00949 µM, first compound 0.0316 µM) of 96.9%. For the same compound, the viability, T/C (second compound 0.00949 µM, first compound 0.1 µM) was 94.4%, the viability, T/C (second compound 0.00949 µM, first compound 0.316 µM) was 105% and the viability, T/C (second compound 0.00949 µM, first compound 1 µM) was 108%. It also gave a viability, T/C (second compound 0.03 µM, first compound 0.00316 µM) of 98.5%, a viability, T/C (second compound 0.03 µM, first compound 0.01 µM) of 105% and a viability, T/C (second compound 0.03 µM, first compound 0.0316 µM) of 101%. It also gave a viability, T/C (second compound 0.03 µM, first compound 0.1 µM) of 111%, a viability, T/C (second compound 0.03 µM, first compound 0.316 µM) of 117% and a viability, T/C (second compound 0.03 µM, first compound 1 µM) of 85.8%. The viability, T/C (second compound 0.0949 µM, first compound 0.00316 µM) was 88.2%, the viability, T/C (second compound 0.0949 µM, first compound 0.01 µM) was 83.7% and the viability, T/C (second compound 0.0949 µM, first compound 0.0316 µM) was 101%. The viability, T/C (second compound 0.0949 µM, first compound 0.1 µM) was 95.1%, the viability, T/C (second compound 0.0949 µM, first compound 0.316 µM) was 115% and the viability, T/C (second compound 0.0949 µM, first compound 1 µM) was 92.2%. It also gave a viability, T/C (second compound 0.3 µM, first compound 0.00316 µM) of 74.2%, a viability, T/C (second compound 0.3 µM, first compound 0.01 µM) of 74.1% and a viability, T/C (second compound 0.3 µM, first compound 0.0316 µM) of 79.6%. It also gave a viability, T/C (second compound 0.3 µM, first compound 0.1 µM) of 82%, a viability, T/C (second compound 0.3 µM, first compound 0.316 µM) of 94.4% and a viability, T/C (second compound 0.3 µM, first compound 1 µM) of 80.8%.

In the case of `CC1(C)CCC(Nc2ncc(C(F)(F)F)c(-c3c[nH]c4c(P(C)(C)=O)c(C#N)ccc34)n2)CN1` (stereo unspecified) + CCn1c(-c2cccnc2C(C)OC)c2c3cc(ccc31)N1CCOC(CC(NC(=O)C(C(C)C)N(C)C(=O)C3(F)CCN(C(=O)C#CC(C)(C)N(C)C)CC3)C(=O)N3CCCC(N3)C(=O)OCC(C)(C)C2)C1, the pIC50 (second compound 0.000949 µM) was < 6.52, the pIC50 (second compound 0.003 µM) was < 6.52 and the pIC50 (second compound 0.00949 µM) was 7.18. The pIC50 (second compound 0.03 µM) was 7.58, the pIC50 (second compound 0.0949 µM) was 7.68 and the pIC50 (second compound 0.3 µM) was 7.88. The viability, T/C [1] was 91.9%, the viability, T/C [2] was 93.3% and the viability, T/C [3] was 86.8%. It also gave a viability, T/C [4] of 59.5%, a viability, T/C [5] of 52.8% and a viability, T/C [6] of 54.1%. It also gave a viability, T/C [7] of 99.1%, a viability, T/C [8] of 90.7% and a viability, T/C [9] of 87.5%. The viability, T/C [10] was 58.3%, the viability, T/C [11] was 54.5% and the viability, T/C [12] was 51.7%. The viability, T/C [13] was 97.6%, the viability, T/C [14] was 91% and the viability, T/C [15] was 82.2%. The viability, T/C [16] was 54.1%, the viability, T/C [17] was 50.5% and the viability, T/C [18] was 44.9%. It also gave a viability, T/C [19] of 89.4%, a viability, T/C [20] of 112% and a viability, T/C [21] of 73.5%. It also gave a viability, T/C [22] of 54.5%, a viability, T/C [23] of 39% and a viability, T/C [24] of 47.9%. For the same compound, the viability, T/C [25] was 77.9%, the viability, T/C [26] was 87.1% and the viability, T/C [27] was 67.7%. It also gave a viability, T/C [28] of 42.2%, a viability, T/C [29] of 34.6% and a viability, T/C [30] of 34.1%. It also gave a viability, T/C [31] of 81.9%, a viability, T/C [32] of 69.1% and a viability, T/C [33] of 58.7%. It also gave a viability, T/C [34] of 34%, a viability, T/C [35] of 26.8% and a viability, T/C [36] of 30.5%.

For `CCc1c2c(nc3ccc(O)cc13)-c1cc3c(c(=O)n1C2)COC(=O)[C@]3(O)CC` + CCn1c(-c2cccnc2C(C)OC)c2c3cc(ccc31)N1CCOC(CC(NC(=O)C(C(C)C)N(C)C(=O)C3(F)CCN(C(=O)C#CC(C)(C)N(C)C)CC3)C(=O)N3CCCC(N3)C(=O)OCC(C)(C)C2)C1, the pIC50 (second compound 0.000949 µM) was 7.90, the pIC50 (second compound 0.003 µM) was 8.06 and the pIC50 (second compound 0.00949 µM) was 7.82. It also gave a pIC50 (second compound 0.03 µM) of 7.90, a pIC50 (second compound 0.0949 µM) of 8.17 and a pIC50 (second compound 0.3 µM) of 8.14. For the same compound, the viability, T/C [1] was 89%, the viability, T/C [2] was 84.4% and the viability, T/C [3] was 56%. For the same compound, the viability, T/C [4] was 27.5%, the viability, T/C [5] was 12.2% and the viability, T/C [6] was 5.05%. The viability, T/C [7] was 92.2%, the viability, T/C [8] was 84.3% and the viability, T/C [9] was 43%. The viability, T/C [10] was 25.8%, the viability, T/C [11] was 10.7% and the viability, T/C [12] was 7.84%. It also gave a viability, T/C [13] of 89.5%, a viability, T/C [14] of 96.3% and a viability, T/C [15] of 63.1%. For the same compound, the viability, T/C [16] was 27.6%, the viability, T/C [17] was 10.5% and the viability, T/C [18] was 7.04%. The viability, T/C [19] was 96.3%, the viability, T/C [20] was 94.1% and the viability, T/C [21] was 52.5%. It also gave a viability, T/C [22] of 29.2%, a viability, T/C [23] of 10.9% and a viability, T/C [24] of 4.84%. For the same compound, the viability, T/C [25] was 91.5%, the viability, T/C [26] was 67.8% and the viability, T/C [27] was 43.4%. The viability, T/C [28] was 19.7%, the viability, T/C [29] was 5.98% and the viability, T/C [30] was 3.35%. The viability, T/C [31] was 68.7%, the viability, T/C [32] was 64.1% and the viability, T/C [33] was 45.9%. For the same compound, the viability, T/C [34] was 10.6%, the viability, T/C [35] was 4.63% and the viability, T/C [36] was 2.53%.
